Test results reported in patent publication US20250129067A1 (Progentos Therapeutics, Inc., priority 2021, published 2025).

Assays:
[1] = tested on: Oligodendrocyte progenitor cells (OPCs); assay: In vitro OPC differentiation assay, GPR17 expression (immunocytochemistry); details: 72 hours, fold change over vehicle; for GPR17 Fold Induction (Over Vehicle; 3 μM): 3 μM (10× concentration, final 0.3 μM); for GPR17 Fold Induction (Over Vehicle; 5 μM): 5 μM (10× concentration, final 0.5 μM)
[2] = biological target: PDGFRα (Homo sapiens (Human), UniProt P16234); assay: PDGFRα kinase enzyme assay (Promega PDGFRα Kinase Enzyme System, ADP-Glo); type: biochemical; details: 11-point dose response, 10,000 nM to 0.169 nM, 150 uM ATP, BLQ = below limit of quantitation; for IC50: read-out: IC50 Values on PDGFRα Kinase Inhibition, IC50
PDGFRα, sequence (P16234 24-1089): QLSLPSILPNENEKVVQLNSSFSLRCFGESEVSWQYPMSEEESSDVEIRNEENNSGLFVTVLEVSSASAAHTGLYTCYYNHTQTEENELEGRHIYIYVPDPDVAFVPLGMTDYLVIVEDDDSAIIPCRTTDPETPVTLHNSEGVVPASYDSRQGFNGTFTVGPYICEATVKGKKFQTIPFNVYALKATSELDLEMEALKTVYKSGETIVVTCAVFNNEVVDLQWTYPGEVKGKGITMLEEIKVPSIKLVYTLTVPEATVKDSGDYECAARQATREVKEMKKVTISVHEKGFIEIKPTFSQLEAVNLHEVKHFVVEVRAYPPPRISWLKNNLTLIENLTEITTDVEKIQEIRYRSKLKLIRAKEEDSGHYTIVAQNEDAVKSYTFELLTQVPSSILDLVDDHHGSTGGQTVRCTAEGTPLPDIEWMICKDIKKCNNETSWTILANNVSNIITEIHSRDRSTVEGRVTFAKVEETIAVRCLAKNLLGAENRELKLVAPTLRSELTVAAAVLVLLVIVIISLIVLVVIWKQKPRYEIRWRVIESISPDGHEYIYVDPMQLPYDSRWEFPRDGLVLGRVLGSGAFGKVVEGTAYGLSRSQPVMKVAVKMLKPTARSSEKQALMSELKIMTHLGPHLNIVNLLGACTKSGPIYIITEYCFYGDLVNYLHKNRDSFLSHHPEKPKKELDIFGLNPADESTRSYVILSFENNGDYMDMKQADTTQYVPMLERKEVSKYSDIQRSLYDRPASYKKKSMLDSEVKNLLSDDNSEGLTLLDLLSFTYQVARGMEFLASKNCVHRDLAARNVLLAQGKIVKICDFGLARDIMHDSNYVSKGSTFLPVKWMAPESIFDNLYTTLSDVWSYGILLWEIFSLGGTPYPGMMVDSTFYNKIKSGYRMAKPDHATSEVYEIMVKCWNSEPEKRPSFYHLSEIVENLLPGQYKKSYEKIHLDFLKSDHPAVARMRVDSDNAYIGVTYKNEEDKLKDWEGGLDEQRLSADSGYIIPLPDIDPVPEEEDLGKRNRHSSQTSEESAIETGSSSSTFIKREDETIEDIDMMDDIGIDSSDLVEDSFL
Procedure, shortened: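 Purified PDGFRα protein (20 ng) reacted with test compound per the Promega kinase system protocol. ADP formed was measured by ADP-Glo luminescence against a standard curve, giving IC50.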

SMILES	GPR17 Fold Induction (Over Vehicle; 3 μM) [1]	IC50 [2]	IC50 Values on PDGFRα Kinase Inhibition, IC50 (nM) [2]	GPR17 Fold Induction (Over Vehicle; 5 μM) [1]
CC(C)(C)OC(=O)N1CCN(c2cnn3cc(-c4ccc(F)cc4)ccc23)CC1 [Compound 207, tert-butyl 4-(6-(4-fluorophenyl)pyrazolo[1,5-a]pyridin-3-yl)piperazine-1-carboxylate]	2.24	4.83 µM	–	–
Cn1cc(-c2ccc3c(-c4ccn(-c5ncc(Cc6ccccc6)cn5)c4)cnn3c2)cn1 [Compound 76, 3-[1-(5-benzylpyrimidin-2-yl)-1H-pyrrol-3-yl]-6-(1-methyl-1H-pyrazol-4-yl)pyrazolo[1,5-a]pyridine]	6.18	0.923 µM	–	–
C[C@@H](NC(=O)N1CCN(c2cnn3cc(-c4cnn(C)c4)ccc23)CC1)c1ccc(C(F)(F)F)cc1 [Compound 288, 4-[6-(1-methyl-1H-pyrazol-4-yl)pyrazolo[1,5-a]pyridin-3-yl]-N-{(1R)-1-[4-(trifluoromethyl)phenyl]ethyl}piperazine-1-carboxamide]	5.92	–	BLQ	–
Cn1cc(-c2ccn3c(N4CCN(c5ncc(Cc6ccccc6)cn5)CC4)cnc3n2)cn1 [Compound 121, 3-(4-(5-benzylpyrimidin-2-yl)piperazin-1-yl)-7-(1-methyl-1H-pyrazol-4-yl)imidazo[1,2-a]pyrimidine]	4.71	0.818 µM	–	–
Cn1cc(-c2cc3ncc(N4CCCN(C(=O)OC(C)(C)C)CC4)n3cn2)cn1 [Compound 85, tert-butyl 4-(7-(1-methyl-1H-pyrazol-4-yl)imidazo[1,2-c]pyrimidin-3-yl)-1,4-diazepane-1-carboxylate]	0.82	1.57 µM	–	–
COCCn1cc(-c2cc3ncc(N(C)CCN(C)C(=O)OC(C)(C)C)n3cn2)cn1 [Compound 97, tert-butyl (2-((7-(1-(2-methoxyethyl)-1H-pyrazol-4-yl)imidazo[1,2-c]pyrimidin-3-yl)(methyl)amino)ethyl)(methyl)carbamate]	1.25	> 10 µM	–	–
COCCn1cncc1-c1ccc2c(N3CCN(C(=O)OC(C)(C)C)CC3)cnn2c1 [Compound 228, tert-butyl 4-(6-(1-(2-methoxyethyl)-1H-imidazol-5-yl)pyrazolo[1,5-a]pyridin-3-yl)piperazine-1-carboxylate]	1.19	> 10 µM	–	–
CC(C)(C)OC(=O)N1CCN(c2cnc3nc(C4CCOC4)ccn23)CC1 (stereo not shown) [Compound 103, tert-butyl 4-(7-(tetrahydrofuran-3-yl)imidazo[1,2-a]pyrimidin-3-yl)piperazine-1-carboxylate]	0.65	> 10 µM	–	–
COc1ccc2c(N3CCN(c4ncc(Cc5ccccc5)cn4)CC3)cnn2c1 [Compound 259, 3-[4-(5-benzylpyrimidin-2-yl)piperazin-1-yl]-6-methoxypyrazolo-[1,5-a]pyridine]	2.69	> 10 µM	–	–
CN1CCC(OC(=O)N2CCN(c3cnn4cc(-c5cnn(C)c5)ccc34)CC2)CC1 [Compound 19, 1-methylpiperidin-4-yl 4-[6-(1-methyl-1H-pyrazol-4-yl)pyrazolo[1,5-a]pyridin-3-yl]piperazine-1-carboxylate]	0.83	> 10 µM	–	–
Cn1cc(-c2ccc3c(N4CCN(C(=O)OC(C)(C)C)CC4=O)cnn3c2)cn1 [Compound 28, tert-butyl 4-[6-(1-methyl-1H-pyrazol-4-yl)pyrazolo[1,5-a]pyridine-3-yl]-3-oxopiperazine-1-carboxylate]	1.84	> 10 µM	–	–
Cn1cc(-c2cc3ncc(N4CCN(c5ncc(Cc6ccccc6)cn5)CC4)n3cn2)cn1 [Compound 113, 3-(4-(5-benzylpyrimidin-2-yl)piperazin-1-yl)-7-(1-methyl-1H-pyrazol-4-yl)imidazo[1,2-c]pyrimidine]	0.57	> 10 µM	–	–
CN1CCC(c2ccc3c(N4CCN(C(=O)OC(C)(C)C)CC4)cnn3c2)C1 (stereo not shown) [Compound 223, tert-butyl 4-(6-(1-methylpyrrolidin-3-yl)pyrazolo[1,5-a]pyridin-3-yl)piperazine-1-carboxylate]	1.13	9.25 µM	–	–
Cc1nn(C)cc1-c1ccc2c(N3CCN(C(=O)OC(C)(C)C)CC3)cnn2c1 [Compound 220, tert-butyl 4-(6-(1,3-dimethyl-1H-pyrazol-4-yl)pyrazolo[1,5-a]pyridin-3-yl)piperazine-1-carboxylate]	5.20	0.528 µM	–	–
Cn1cc(-c2ccc3c(N4CCN(c5ncc([C@@H](O)[C@@H]6CCCOC6)cn5)CC4)cnn3c2)cn1 [Compound 193, (S)-(2-(4-(6-(1-methyl-1H-pyrazol-4-yl)pyrazolo[1,5-a]pyridin-3-yl)piperazin-1-yl)pyrimidin-5-yl)((R)-tetrahydro-2H-pyran-3-yl)methanol]	11.72	0.0691 µM	–	–
CC(C)(C)OC(=O)N1CCCN(c2cnc3cc(C4CCOC4)ncn23)CC1 (stereo not shown) [Compound 94, tert-butyl 4-(7-(tetrahydrofuran-3-yl)imidazo[1,2-c]pyrimidin-3-yl)-1,4-diazepane-1-carboxylate]	1.00	> 10 µM	–	–
CN(CCCNc1cnn2cc(-c3cnn(C)c3)ccc12)c1ncc(Cc2ccccc2)cn1 [Compound 129, N^1-(5-benzylpyrimidin-2-yl)-N^1-methyl-N^3-(6-(1-methyl-1H-pyrazol-4-yl)pyrazolo[1,5-a]pyridin-3-yl)propane-1,3-diamine]	2.27	> 10 µM	–	–
Cn1cc(-c2ccc3c(N4CCN(c5ncc(Cc6nccs6)cn5)CC4)cnn3c2)cn1 [Compound 182, 2-((2-(4-(6-(1-methyl-1H-pyrazol-4-yl)pyrazolo[1,5-a]pyridin-3-yl)piperazin-1-yl)pyrimidin-5-yl)methyl) thiazole]	13.16	6.99 µM	–	–
Cn1cc(-c2ccc3c(N4CCN(c5ncc(CN6CCCCC6)cn5)CC4)cnn3c2)cn1 [Compound 42, 6-(1-methyl-1H-pyrazol-4-yl)-3-{4-[5-(piperidin-1-ylmethyl)pyrimidin-2-yl]piperazin-1-yl}pyrazolo[1,5-a]pyridine]	10.21	8.25 µM	–	4.64

Next, values leading:

GPR17 Fold Induction (Over Vehicle; 3 μM) [1]	IC50 [2]	IC50 Values on PDGFRα Kinase Inhibition, IC50 (nM) [2]	GPR17 Fold Induction (Over Vehicle; 5 μM) [1]	SMILES
2.80	9.68 µM	–	–	Cn1cc(-c2ccc3c(N4CCN(S(=O)(=O)CCc5ccccc5)CC4)cnn3c2)cn1 [Compound 160, 6-(1-methyl-1H-pyrazol-4-yl)-3-(4-(phenethylsulfonyl)piperazin-1-yl)pyrazolo[1,5-a]pyridine]
2.23	6.72 µM	–	–	CN(Cc1ccccc1)C(=O)C1CCN(c2cnn3cc(-c4cnn(C)c4)ccc23)CC1 [Compound 147, N-benzyl-N-methyl-1-(6-(1-methyl-1H-pyrazol-4-yl)pyrazolo[1,5-a]pyridin-3-yl)piperidine-4-carboxamide]
3.04	0.937 µM	–	–	Cn1cc(-c2ccc3c(N4CCN(c5ncc(C(N)c6ccc(F)cc6)cn5)CC4)cnn3c2)cn1 (stereo not shown) [Compound 246, 1-(4-fluorophenyl)-1-(2-{4-[6-(1-methyl-1H-pyrazol-4-yl)pyrazolo[1,5-a]pyridin-3-yl]piperazin-1-yl}pyrimidin-5-yl)methanamine]
4.95	1.79 µM	–	–	CC(O)C(O)c1cnc(N2CCN(c3cnn4cc(-c5cnn(C)c5)ccc34)CC2)nc1 (stereo not shown) [Compound 286, 1-(2-(4-(6-(1-methyl-1H-pyrazol-4-yl)pyrazolo[1,5-a]pyridin-3-yl)piperazin-1-yl)pyrimidin-5-yl)propane-1,2-diol]
3.02	1.44 µM	–	–	Cn1cc(-c2ccc3c(C4=CCC(C(=O)OCc5ccccc5)C4)cnn3c2)cn1 (stereo not shown) [Compound 133, benzyl 3-[6-(1-methylpyrazol-4-yl)pyrazolo[1,5-a]pyridin-3-yl]cyclopent-3-ene-1-carboxylate]
2.52	> 10 µM	–	–	Cn1cc(-c2ccc3c(N4CCN(c5cnc(Cc6ccccc6)cn5)CC4)cnn3c2)cn1 [Compound 303, 3-(4-(5-benzylpyrazin-2-yl)piperazin-1-yl)-6-(1-methyl-1H-pyrazol-4-yl)pyrazolo[1,5-a]pyridine]
12.48	0.385 µM	–	6.92	CN(C)CCn1cc(-c2ccc3c(N4CCN(c5ncc(Cc6ccccc6)cn5)CC4)cnn3c2)cn1 [Compound 43, 2-(4-{3-[4-(5-benzylpyrimidin-2-yl)piperazin-1-yl]pyrazolo[1,5-a]pyridin-6-yl}-1H-pyrazol-1-yl)-N,N-dimethylethanamine]
6.43	0.105 µM	–	–	CCCCC(O)c1cnc(N2CCN(c3cnn4cc(-c5cnn(C)c5)ccc34)CC2)nc1 (stereo not shown) [Compound 168, 1-(2-(4-(6-(1-methyl-1H-pyrazol-4-yl)pyrazolo[1,5-a]pyridin-3-yl)piperazin-1-yl)pyrimidin-5-yl)pentan-1-ol]
6.74	0.0972 µM	–	–	C[C@@H](OC(=O)N1CCN(c2cnn3cc(-c4cnn(C)c4)ccc23)CC1)c1ccccc1F [Compound 81, (1R)-1-(2-Fluorophenyl)ethyl 4-[6-(1-methyl-1H-pyrazol-4-yl)pyrazolo[1,5-a]pyridin-3-yl]piperazine-1-carboxylate]
